Assay results taken from patent publication US11291235B2, “Phloretin” (Firmenich SA, priority 2016, dated 2022).

What was measured:
Type in all cases: in vivo
[1] = Sensory evaluation of strawberry yogurt sweetened with 250 ppm Stevia (SG95), with and without phloretin
[2] = Sensory evaluation of pomegranate juice (POM Brand) sweetened with 150 ppm SG95, with and without phloretin
[3] = Sensory evaluation of tropical flavored soft drink containing 7% sucrose, with and without phloretin
[4] = Sensory evaluation of tropical juice drink sweetened with sucrose (5%) and Stevia (25 ppm), with and without phloretin
[5] = Sensory assessment of pasteurized sweet water solution of pea protein isolate, with and without phloretin; conditions: 30 ppm phloretin, eight panelists, 0 to 5 scale, Duncan test
Method: To evaluate sensory effect of phloretin on pea protein solution Evaluation in blind and randomized conditions of pasteurized sweet water solution of pea protein isolate • 1. Control: no phloretin added • 2. Test: 30 ppm phloretin added (via a presolution 10% in propylene glycol) Weigh and premix protein with sugar (600 gram preparation) Dispersion/solubilisation of protein-sugar-water to obtain a “mother mixture”: disperse mix protein/sugar in water (becher—deionized water 40° C.—Mini Ultra-Turrax T18—Speed 2—time:7 minutes). The same “mother mixture” for both the Control and Test trials. Add phloretin (fresh dilution 10% in propylene Glycol) in Test trial. Split each trials in 2 glass bottles: 100 g for pre-evaluation and generation of sensory attributes—200 gram for sensory assessment Pasteurisation (water bach—95° C.—30 minutes). Cooling bottles at room temperature—Storage in fridge until tasting. Perform Sensory assessment at room temperature. Eight panelists were asked to rate intensity of sensory attributes using a 0 to 5 structured scale (from 0 ‘not perceptible’ to 5 ‘strong intensity’). Sensory descriptors were selected to assess taste, tactile and aromatic stimuli Data treatment was run with XLSTAT software (Duncan mean comparison test). Sensory attributes were selected during a preliminary series of applications evaluated in a free-description mode Symbols for significant differences * at 95% (See FIG. 5). […] Other sensory attributes related to taste (“Sweetness”, “Bitterness”), tactile (mouthcoating) or aromatic stimuli (“cereal”) were unmodified.

[6] = Tasting of phloretin in water or model beverage solution of water and citric acid; conditions: tasted in water or in water and citric acid
[7] = Phloretin as taste modifier in foods and beverages containing steviol glycosides and rebaudioside
[8] = 20 ppm Phloretin, strawberry yogurt with 250 ppm Stevia, in words
[9] = sensory score, Stevia @250 ppm + 20 ppm Phloretin, strawberry yogurt, n = 29
[10] = 35 ppm Phloretin, pomegranate juice with 150 ppm Stevia, in words
[11] = sensory score, Pom Juice + SG95 @150 ppm + Phloretin @ 35 ppm
[12] = 30 ppm Phloretin, tropical soft drink with 7% sucrose, in words
[13] = sensory score, 7% Sucrose + 30 ppm Phloretin, tropical soft drink
[14] = 30 ppm Phloretin, sugar (5%) and Stevia (25 ppm) tropical juice drink, in words
[15] = sensory score, Sucrose (5%) and Stevia (25 ppm) control + Phloretin @ 30 ppm, tropical juice drink

In the case of O=C(CCc1ccc(O)cc1)c1c(O)cc(O)cc1O [Phloretin, 3-(4-hydroxyphenyl)-1-(2,4,6-trihydroxyphenyl)propan-1-one], the “Strawberry flavor intensity versus control” value [1, 8] is reported as “higher”, the “licorice taste versus control” value [1, 8] is reported as “significantly lower” and the Acidity [1, 9] is reported as 2.56. It also gave a Fruity [1, 9] of 3.25, a Green [1, 9] of 2.38 and a Jammy [1, 9] of 3.19. For the same compound, the Licorice [1, 9] was 1.44, the “Long Lasting” value [1, 9] was 2.56 and the “Strawberry Flavor” value [1, 9] was 3.56. The Sweetness [1, 9] was 3.38, the “Bitterness Intensity, effect of phloretin” value [2, 10] was “significantly reduces” and the “Pomegranate flavor intensity, effect of phloretin” value [2, 10] was “significantly increasing”. The “Sourness intensity, effect of phloretin” value [2, 10] was “significantly reduces”, the Astringent [2, 11] was 4.1 and the “Berry Flv intensity” value [2, 11] was 6.01. For the same compound, the Bitterness [2, 11] was 3.35, the “Pomegranate Flv intensity” value [2, 11] was 6.68 and the Sourness intensity [2, 11] was 4.75. The Sweetness intensity [2, 11] was 5.79, the “acidity/sourness, effect of phloretin” value [3, 12] was “significantly reduced” and the “astringency, effect of phloretin” value [3, 12] was “significantly reduced”. For the same compound, the “bitterness, effect of phloretin” value [3, 12] was “significantly reduced”, the Acidity/Sourness intensity [3, 13] was 3.27 and the Astringency intensity [3, 13] was 2.05. For the same compound, the Bitterness intensity [3, 13] was 1.9, the “Mango Flavor intensity” value [3, 13] was 6.04 and the Off-Note intensity [3, 13] was 1.72. For the same compound, the “Overall Flavor intensity” value [3, 13] was 6.76, the “Passion Fruit Flavor intensity” value [3, 13] was 5.69 and the “Tropical Flavor intensity” value [3, 13] was 6.55. For the same compound, the “astringency, effect of phloretin” value [4, 14] was “significantly reduced”, the “bitterness, effect of phloretin” value [4, 14] was “significantly reduced” and the Acidity [4, 15] was 2.93. The Astringency [4, 15] was 1.21, the Bitterness [4, 15] was 0.57 and the “Long-lasting (sweet)” value [4, 15] was 0.50. For the same compound, the Off-notes [4, 15] was 1.21, the “Overall Flavor” value [4, 15] was 3.71 and the Sweetness [4, 15] was 2.29. The “Sweetness, effect of phloretin” value [5] was “unmodified”, the “aromatic stimuli (cereal), effect of phloretin” value [5] was “unmodified” and the “bitterness, effect of phloretin” value [5] was “unmodified”. For the same compound, the “score in astringency, effect of phloretin” value [5] was “significantly reduce”, the “score in off-tastes, effect of phloretin” value [5] was “significantly reduce” and the “tactile (mouthcoating), effect of phloretin” value [5] was “unmodified”. The “own flavor of phloretin” value [6] was “nearly no flavor on its own”, the “off-note masking: bitterness” value [7] was “reduced bitterness” and the “off-note masking: licorice” value [7] was “reduced licorice”. For the same compound, the “off-note masking: linger” value [7] was “reduced linger”.
